The values below come from patent US20240216354A1, “IMMUNOMODULATORY IMIDE DRUGS AS ZETA-CHAIN-ASSOCIATED PROTEIN KINASE 70 (ZAP70) AGONISTS AND USES THEREOF” (Dana-Farber Cancer Institute, Inc., priority 2019, published 2024).

One test has as its system granzyme-B (GZM-B). Description: GZM-B expression in primary NK cells (immunoblotting). Format: cell-based, human. The settings on record: primary NK cells #1, #2, pomalidomide 0.3-1 μM, 24 h. As to the method:
(A) KHYG1 cells were cultured with pomalidomide (0.25-1 μM) for 24 h. (B) Isolated primary NK cells from healthy volunteers (#1, #2) were cultured with pomalidomide (0.3-1 μM) for 24 h. (C) KHYG-1 cells were transfected with Scsi or Zap-70si. After 48 h, cells were cultured for 24 h in the absence or presence (0.5 μM) of pomalidomide. Whole cell lysates and RNAs were subjected to immunoblotting using indicated Abs.
Background: A western blot detects proteins with antibodies after separation by electrophoresis.

Test [1] deals with T1, Zap-70 (Homo sapiens, UniProt P43403).
T1 sequence (P43403 1-619): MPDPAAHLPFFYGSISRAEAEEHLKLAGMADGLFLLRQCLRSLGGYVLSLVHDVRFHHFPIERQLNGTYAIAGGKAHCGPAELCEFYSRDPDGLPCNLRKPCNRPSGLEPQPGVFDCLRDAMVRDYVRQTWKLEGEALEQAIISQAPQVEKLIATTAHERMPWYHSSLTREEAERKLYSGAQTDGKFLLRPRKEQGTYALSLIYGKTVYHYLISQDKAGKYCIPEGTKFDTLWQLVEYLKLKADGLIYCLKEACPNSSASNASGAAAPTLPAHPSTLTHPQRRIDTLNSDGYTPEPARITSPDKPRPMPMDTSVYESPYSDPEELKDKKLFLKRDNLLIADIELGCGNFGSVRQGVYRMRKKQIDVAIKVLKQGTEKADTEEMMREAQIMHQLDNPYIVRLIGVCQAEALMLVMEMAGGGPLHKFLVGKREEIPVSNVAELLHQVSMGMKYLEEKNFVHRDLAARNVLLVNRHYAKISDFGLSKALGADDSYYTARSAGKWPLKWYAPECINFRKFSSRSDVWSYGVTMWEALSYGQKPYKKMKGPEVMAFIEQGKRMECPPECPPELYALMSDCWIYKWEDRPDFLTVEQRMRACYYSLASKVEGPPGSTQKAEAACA
Description: Immunoblotting of p-Zap-70 in NK-92 cells. Format: cell-based. The note with it: 24 h, Pom 0.5 and 1 μM, CC-220 0.01, 0.1, 1 μM. Here is the method:
(A) NK-92 cells were cultured with Pom (0.5 and 1 μM) for 24 h. Whole cell lysates were subjected to immunoblotting using indicated Abs. (B) NK-92 cells were cultured with Pom (0.5 and 1 μM) for 48 h. The cells were subsequently incubated with calcein-AM-stained U266 cells for 4 h at the indicated effector/target (E/T) ratios. Percent specific lysis was calculated as described previously. (C) NK-92 cells were cultured with Pom (0.03-3 μM) for 72 h. Cell growth was assessed by MTT assay. (D) NK-92 cells were transfected with scrambled (Sc) or Zap-70 siRNA (Zap70si). After 72 h incubation, cell viability was measured by trypan-blue dye exclusion. For B, C, and D, data are representative of at least two independent experiments, and values are expressed in mean±SD.
(A) NK-92 cells were cultured with Len (1 μM), Pom (0.01, 0.1, 1 μM) or CC-220 (0.01, 0.1, 1 μM) for 24 h. Whole cell lysates were subjected to immunoblotting using indicated Abs. (B) NK-92 cells were cultured with Pom (0.1 and 1 μM) or CC-220 ([…]) for 48 h. NK cell activity was measured by incubation with calcein AM-labeled U266 cells for 4 h at E/T ratio of 2.5/1. Percent specific lysis was calculated as previously described. Data are representative of three independent experiments, and values are expressed in mean±SD. *: p<0.01.

Test [2] has as its target T1, Zap-70. Description: Immunoblotting of p-Zap-70 and p-LAT in primary T-cells from healthy volunteer. The settings on record: pomalidomide 0.25-1 μM, 16 h. More on the design: endogenous in cells; host or cells: primary PBMCs, primary T cells and primary NK cells from healthy volunteers. Format: cell-based. As to the method:
(§1) (A) PBMCs were cultured with pomalidomide (“Pom”) (0.01-1 μM) for 16 h. […] (B) PBMCs were cultured with pomalidomide (0.1 and 1 μM) for the indicated time periods. (C) PBMCs were cultured with lenalidomide (“Len”) (1 μM) for 16 h. (D) Primary T-cells from healthy volunteer were cultured with pomalidomide (0.25-1 μM) for 16 h. (E) Jurkat cells were cultured with pomalidomide (0.5 and 1 μM) for 16 h. Whole cell lysates were subjected to immunoblotting (A-E) using indicated Abs. (F) Jurkat cells were cultured with pomalidomide (0.01-1 μM) or lenalidomide (0.01-1 μM) for 72 h. Cell growth was assessed by MTT assay.

A further test has as its system Jurkat cells. In words: Jurkat cell growth by MTT assay. Format: cell-based. The settings on record: 0.01-1 μM, 72 h. Here is the method:
as §1
A general note: Formazan colour is commonly taken as a measure of viable cells.

Test [3] concerns the target T1, Zap-70. In words: Immunoblotting of p-Zap-70 in primary NK cells from healthy volunteers. Format: cell-based. More on the design: endogenous in cells; host or cells: primary PBMCs, primary T cells and primary NK cells from healthy volunteers. The note with it: primary NK cells #1-#4, pomalidomide 0.5 μM, 24 h. As to the method: KHYG-1 cells were cultured with pomalidomide (0.25-1 μM) for 24 h. (A) Whole cell lysates were subjected to immunoblotting using indicated Abs. (B) KHYG-1 cells were incubated with calcein-AM-stained U266 cells for 4 h at the indicated effector/target (E/T) ratios. Percent specific lysis was calculated as described previously. (C) KHYG-1 cells were transfected with Scsi or Zap-70si, and then cultured with pomalidomide (0.25 μM) for 72 h in the absence of IL-2. Viable cell number was determined, and cells were then incubated with calcein AM-labeled U266 target cells for 4 h at indicated effector/target (E/T) ratios. Percent specific lysis was calculated as described previously. (D) After transfection with Scsi or Zap-70si, cells were cultured with lenalidomide or pomalidomide for 72 h. Cell growth was assessed by MTT assay. (E) KHYG-1 cells were transfected with scrambled (Scsi) or CRBNsi. The transfectants were then cultured with pomalidomide (0.5 μM) for 24 h, and whole cell lysates were subjected to immunoblotting using indicated Abs. The arrow indicates CRBN expression. (F) Primary NK cells (#1, #2, #3, #4) were isolated from healthy volunteer's PBMCs, as described in Materials and Methods. NK cells were cultured with pomalidomide (0.5 μM) for 24 h, and whole cell lysates were subjected to immunoblotting using indicated Abs. […] Percent specific lysis was calculated as previously described.

As for `Nc1cccc2c1C(=O)N(C1CCC(=O)NC1=O)C2=O` (stereo not drawn) [pomalidomide], the GZM-B expression result in the test on granzyme-B (GZM-B) is reported as “upregulated GZM-B expression”. The “p-Zap-70 (immunoblotting)” value is “induced increased p-Zap70” at Zap-70 [1]; “induced p-Zap-70 and p-LAT in primary T cells” on Zap-70 [2]; “upregulated p-Zap-70 in primary NK cells” on Zap-70 [3]. In addition, the “p-LAT (immunoblotting)” value at Zap-70 [2] is “induced p-Zap-70 and p-LAT in primary T cells”. Also, the “proliferation / cell growth (MTT)” value with Jurkat cells is recorded as “without altering their proliferation”.
